Data from patent US9326513B2, “Fungicidal compositions” (Syngenta Participations AG, priority 2011, dated 2016).
Values joined by “and” are separate entries in the source; they are usually repeats but may differ in a detail not shown here. Equal values may be shown once. Read-outs that look alike come from different tables or passages of the source.

Assays:
[1] = tested on: Blumeria graminis f. sp. tritici (Erysiphe graminis f. sp. tritici); experiment: Blumeria graminis f. sp. tritici / wheat / leaf disc preventative (powdery mildew on wheat); type: in vivo; conditions: foliar, compared to untreated control leaf disks, read-out: disease control
How it was run: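 Wheat leaf segments (cv. Kanzler) on agar were sprayed with formulated compound in water, inoculated with powdery mildew 1 day later, and kept at 20° C, 60% rh (24 h dark, then 12 h light/12 h dark). Percent disease control versus untreated scored 6-8 days after application; tested at 200 ppm.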

[2] = tested on: Puccinia recondita f. sp. tritici; experiment: Puccinia recondita f. sp. tritici / wheat / leaf disc preventative (brown rust); type: in vivo; conditions: foliar, compared to untreated control leaf disks, read-out: disease control
From the text: Puccinia recondita f. sp. tritici/Wheat/Leaf Disc Preventative (Brown Rust) Wheat leaf segments cv. Kanzler were placed on agar in multiwell plates (24-well format) and sprayed with the formulated test compound diluted in water. The leaf disks were inoculated with a spore suspension of the fungus 1 day after application.

[3] = tested on: Monographella nivalis (syn. Microdochium nivale, Fusarium nivale); experiment: Monographella nivalis (snow mould, foot rot of cereals), PDB microtiter plate, visual after 72 hrs; type: cell-based
[4] = tested on: Botrytis cinerea; experiment: Botrytis cinerea (gray mould), PDB microtiter plate, visual after 72 hrs; type: cell-based; conditions: for inhibition at 0.00390625 ppm: rate 0.00390625 ppm; for inhibition at 0.0078125 ppm: rate 0.0078125 ppm; for inhibition at 0.015625 ppm: rate 0.015625 ppm; for inhibition at 0.03125 ppm: rate 0.03125 ppm; for inhibition at 0.03125 ppm / inhibition at 0.0625 ppm: read-out: Activity (%); for inhibition at 0.0625 ppm: rate 0.0625 ppm; for inhibition at 0.25 ppm: rate 0.25 ppm; for inhibition at 0.125 ppm: rate 0.125 ppm
[5] = tested on: Septoria tritici; experiment: Septoria tritici (leaf blotch), PDB microtiter plate, visual after 72 hrs; type: cell-based; conditions: Zymoseptoria tritici, single compound; for inhibition at 0.25 ppm: read-out: Activity (%)
[6] = tested on: Mycosphaerella arachidis (y. Cercospora arachidicola); experiment: Mycosphaerella arachidis (brown leaf spot of groundnut), PDB microtiter plate, visual after 5-6 days; type: cell-based; conditions: single compound
[7] = tested on: Septoria tritici; experiment: Septoria tritici (leaf blotch), YBG microtiter plate, photometric growth inhibition after 6 days; type: cell-based; conditions: Zymoseptoria tritici, 144 h, solo; for inhibition of growth at 0.15625 ppm: rate 0.15625 ppm, read-out: Activity; for inhibition of growth at 0.3125 ppm: rate 0.3125 ppm; for inhibition of growth at 1.25 ppm: rate 1.25 ppm
From the text: (§1) In the following Tables ‘Activity (%)’ means the assessed experimental activity (% disease control in this test when compared to untreated control leaf disks under the same conditions, which show extensive disease development) and “P” is the expected value calculated (expected) activity according to the COLBY formula (see above). The column headed ‘S?’ indicates whether or not synergy was observed, with ‘y’ meaning that synergy was observed.
Septoria tritici (Leaf Blotch):
After placing solutions of the test compounds (containing 0.2% DMSO) into a microtiter plate (96-well format), an equal amount of the nutrient broth (YBG) was added to each of the well. Finally the fungal spore solution was added. The test plates were incubated at 20° C. The inhibition of growth was determined photometrically after 6 days and the activity calculated in relation to untreated control.

[8] = tested on: Sclerotinia sclerotiorum; experiment: Sclerotinia sclerotiorum on oilseed rape, preventive treatment; type: in vivo; conditions: solo, 1 day preventive, 11 days after application
From the text: as §1
Sclerotinia sclerotiorum on Oilseed Rape, Preventive Treatment
The compound activity was tested under 1 day preventive conditions. Oilseed rape plants with 3 unfolded leafs were sprayed with a track sprayer and 200 I/ha spray volume with the test compounds, either solo or in tankmix as shown in the table below.
1 day after application the plants were infested with a solution of Sclerotinia sclerotiorum mycelium. The plants were placed under plastic hoods and high humidity conditions in a climate chamber at 14 h day/10 h night cycle and 15° C. Disease infestation was evaluated visually 11 days after application and average activity calculated in relation to disease severity on untreated check.

[9] = tested on: Sphaerotheca fuliginea; experiment: Sphaerotheca fuliginea (powdery mildew) on cucumber, preventive treatment; type: in vivo; conditions: solo, 2 days preventive, 10 days after application
From the text: In the following Tables 'Activity (%)' means the assessed experimental activity (% disease control in this test when compared to untreated control leaf disks under the same conditions, which show extensive disease development) and “P” is the expected value calculated (expected) activity according to the COLBY formula (see above). The column headed 'S?' indicates whether or not synergy was observed, with 'y' meaning that synergy was observed. Sphaerotheca fuliqinea (Powdery Mildew) on Cucumber, Preventive Treatment […] Cucumber plants with unfolded cotyledons were sprayed with a roomsprayer and 40 ml/4 plants spray volume with the test compounds, either solo or in […] shown in the table below. 2 days after application the plants were infested with spores of Sphaerotheca fuliginea.

[10] = tested on: Fusarium graminearum and Fusarium culmorum; type: in vivo; conditions: solo, 200 g a.i./ha; wheat, 1 day preventive, 9 days after application
[11] = tested on: Phakopsora pachyrhizi (triazole tolerant soybeanrust strain); experiment: Phakopsora pachyrhizi on soybean, preventive treatment; type: in vivo; conditions: solo, soybean leaf discs, 1 day preventive, 11 days after application
[12] = tested on: Septoria tritici; experiment: Septoria tritici on wheat, preventive treatment; type: in vivo; conditions: solo, wheat Riband, 1 day preventive, 18 days after application
[13] = Botrytis cinerea, alone, rate 2 ppm
[14] = Botrytis cinerea, single compound
[15] = Mycosphaerella arachidis, 0.03125 ppm, read-out: Activity (%)
[16] = Mycosphaerella arachidis, 0.0625 ppm, read-out: Activity (%)

CCN(C)/C=N/c1cc(Br)c(OC2Cc3ccccc3C2)nc1C [Q.062]
pest or weed control at 200 ppm [1]: ≥ 50%
pest or weed control at 200 ppm [2]: ≥ 50%
inhibition at 0.015625 ppm ([3]; Monographella nivalis, applied alone, 0.015625 ppm): 0%
inhibition at 0.03125 ppm ([3]; Monographella nivalis, applied alone, 0.03125 ppm): 0%
inhibition at 0.0625 ppm ([3]; Monographella nivalis, applied alone, 0.0625 ppm): 0%
inhibition at 0.125 ppm ([3]; Monographella nivalis, applied alone, 0.125 ppm): 0%
inhibition at 2 ppm ([3]; Monographella nivalis, applied alone, 2 ppm): 20%
inhibition at 0.015625 ppm ([3]; Monographella nivalis, single compound, rate 0.015625 ppm): 0%
inhibition at 0.03125 ppm ([3]; Monographella nivalis, single compound, rate 0.03125 ppm): 0%
inhibition at 0.0625 ppm ([3]; Monographella nivalis, single compound, rate 0.0625 ppm): 0%
inhibition at 0.125 ppm ([3]; Monographella nivalis, single compound, rate 0.125 ppm): 0%
inhibition at 0.25 ppm ([3]; Monographella nivalis, single compound, rate 0.25 ppm): 20%
inhibition at 0.5 ppm ([3]; Monographella nivalis, single compound, rate 0.5 ppm): 50%
inhibition at 1 ppm ([3]; Monographella nivalis, single compound, rate 1 ppm): 70%
inhibition at 0.00390625 ppm ([4]; Botrytis cinerea, alone): 0%
inhibition at 0.0078125 ppm ([4]; Botrytis cinerea, alone): 0%
inhibition at 0.015625 ppm ([4]; Botrytis cinerea, alone): 0%
inhibition at 0.03125 ppm ([4]; Botrytis cinerea, alone): 0%
inhibition at 0.0625 ppm ([4]; Botrytis cinerea, alone): 0%
inhibition at 0.1258 ppm ([4]; Botrytis cinerea, alone, rate 0.1258 ppm): 0%
inhibition at 0.25 ppm ([4]; Botrytis cinerea, alone): 0%
inhibition at 0.5 ppm ([4]; Botrytis cinerea, alone, rate 0.5 ppm): 0%
inhibition at 1 ppm ([4]; Botrytis cinerea, alone, rate 1 ppm): 0%
inhibition at 2 ppm [4, 13]: 0%
inhibition at 0.015625 ppm [4, 14]: 0%
inhibition at 0.03125 ppm [4, 14]: 0%
inhibition at 0.0625 ppm [4, 14]: 0%
inhibition at 0.125 ppm [4, 14]: 0%
inhibition at 0.25 ppm [4, 14]: 0%
inhibition at 0.5 ppm ([4]; Botrytis cinerea, single compound, rate 0.5 ppm): 0%
inhibition at 1 ppm ([4]; Botrytis cinerea, single compound, rate 1 ppm): 0%
inhibition at 2 ppm ([4]; Botrytis cinerea, single compound, rate 2 ppm): 0%
inhibition at 0.00390625 ppm [5]: 0%
inhibition at 0.0078125 ppm [5]: 0%
inhibition at 0.015625 ppm [5]: 0%
inhibition at 0.03125 ppm [5]: 0%
inhibition at 0.0625 ppm [5]: 0%
inhibition at 0.125 ppm [5]: 0%
inhibition at 0.25 ppm [5]: 0%
inhibition at 0.5 ppm [5]: 0%
inhibition at 1 ppm [5]: 0%
inhibition at 2 ppm [5]: 0%
inhibition at 0.015625 ppm ([6]; Mycosphaerella arachidis, 0.015625 ppm, read-out: Activity (%)): 0%
inhibition at 0.03125 ppm [6, 15]: 0%
inhibition at 0.0625 ppm [6, 16]: 0%
inhibition at 0.125 ppm ([6]; Mycosphaerella arachidis, 0.125 ppm, read-out: Activity (%)): 0%
inhibition at 0.25 ppm ([6]; Mycosphaerella arachidis, 0.25 ppm, read-out: Activity (%)): 0%
inhibition at 0.5 ppm ([6]; Mycosphaerella arachidis, 0.5 ppm, read-out: Activity (%)): 0%
inhibition at 1 ppm ([6]; Mycosphaerella arachidis, 1 ppm): 70%
inhibition at 2 ppm ([6]; Mycosphaerella arachidis, 2 ppm): 70%
inhibition of growth at 0.00390625 ppm ([7]; rate 0.00390625 ppm): 32%
inhibition of growth at 0.0078125 ppm ([7]; rate 0.0078125 ppm): 31%
inhibition of growth at 0.078125 ppm ([7]; rate 0.078125 ppm): 29%
inhibition of growth at 0.15625 ppm [7]: 39%
inhibition of growth at 0.3125 ppm [7]: 37%
inhibition of growth at 1.25 ppm [7]: 51%
inhibition of growth at 2.5 ppm ([7]; rate 2.5 ppm): 48%
inhibition of growth at 5 ppm ([7]; rate 5 ppm): 64%
Activity ([8]; rate 25 ppm): 0%
Activity ([8]; rate 50 ppm): 2%
Activity ([8]; rate 100 ppm): 26%
Activity ([9]; rate 0.2 ppm): 0%
Activity ([9]; rate 0.6 ppm): 0%
Activity ([9]; rate 2 ppm): 7%
Activity [10]: 17%
Activity ([11]; rate 0.5 g ai/ha): 0%
Activity ([11]; rate 2 g ai/ha): 13%
Activity ([12]; 1 g a.i./ha): 2%
Activity ([12]; 3 g a.i./ha): 8% and 6%
Activity ([12]; 27 g a.i./ha): 50% and 71%
Activity ([12]; 81 g a.i./ha): 61%

CCN(C)/C=N/c1cc(Br)c(O[C@H]2CC[C@@H](C(C)C)CC2)nc1C [Q.135]
pest or weed control at 200 ppm [1]: ≥ 50%
pest or weed control at 200 ppm [2]: ≥ 50%
inhibition at 0.0078125 ppm ([3]; Monographella nivalis, applied alone, rate 0.0078125 ppm): 0%
inhibition at 0.015625 ppm ([3]; Monographella nivalis, applied alone, rate 0.015625 ppm): 0%
inhibition at 0.125 ppm ([3]; Monographella nivalis, applied alone, rate 0.125 ppm): 70%
inhibition at 0.3125 ppm ([3]; Monographella nivalis, applied alone, rate 0.3125 ppm): 0%
inhibition at 0.625 ppm ([3]; Monographella nivalis, applied alone, rate 0.625 ppm): 50%
Activity (%) ([3]; applied alone, rate 0.0625 ppm): 20%
inhibition at 0.00390625 ppm ([4]; Botrytis cinerea, alone): 0%
inhibition at 0.0078125 ppm ([4]; Botrytis cinerea, alone): 0%
inhibition at 0.015625 ppm ([4]; Botrytis cinerea, alone): 0%
inhibition at 0.03125 ppm ([4]; Botrytis cinerea, alone): 0%
inhibition at 0.0625 ppm ([4]; Botrytis cinerea, alone): 0%
inhibition at 0.125 ppm ([4]; Botrytis cinerea, alone): 0%
inhibition at 0.25 ppm ([4]; Botrytis cinerea, alone): 0%
inhibition at 2 ppm [4, 13]: 70%
Activity (%) ([4]; alone, rate 0.5 ppm): 20%
Activity (%) ([4]; alone, rate 1 ppm): 20%
Activity (%) ([4]; alone, rate 2 ppm): 50%
inhibition at 0.00390625 ppm [5]: 0%
inhibition at 0.0078125 ppm [5]: 0%
inhibition at 0.015625 ppm [5]: 0%
inhibition at 0.03125 ppm [5]: 0%
inhibition at 0.0625 ppm [5]: 0%
inhibition at 0.125 ppm [5]: 0%
inhibition at 0.25 ppm [5]: 0%
inhibition at 0.5 ppm [5]: 0%
inhibition at 1 ppm [5]: 0%
inhibition at 2 ppm [5]: 0%
inhibition at 0.00390625 ppm ([6]; Mycosphaerella arachidis, 0.00390625 ppm, read-out: Activity (%)): 0%
inhibition at 0.03125 ppm [6, 15]: 50%
inhibition at 0.0625 ppm [6, 16]: 50%
inhibition at 0.15625 ppm ([6]; Mycosphaerella arachidis, 0.15625 ppm): 0%
Activity (%) ([6]; 0.015625 ppm): 20%
Activity (%) ([6]; 0.03125 ppm): 70%
Activity (%) ([6]; 0.0625 ppm): 70%
inhibition of growth at 0.15625 ppm [7]: 29%
inhibition of growth at 0.3125 ppm [7]: 34%
inhibition of growth at 0.625 ppm ([7]; rate 0.625 ppm): 32%
inhibition of growth at 1.25 ppm [7]: 22%
Activity ([8]; rate 25 ppm): 0%
Activity ([8]; rate 50 ppm): 0%
Activity ([8]; rate 100 ppm): 15%
Activity ([9]; rate 0.2 ppm): 0%
Activity ([9]; rate 0.6 ppm): 0%
Activity ([9]; rate 2 ppm): 0%
Activity [10]: 28%
Activity ([11]; rate 0.5 g ai/ha): 13%
Activity ([11]; rate 2 g ai/ha): 41%
Activity ([12]; 1 g a.i./ha): 0%
Activity ([12]; 3 g a.i./ha): 0% and 9%
Activity ([12]; 9 g a.i./ha): 33% and 43%
Activity ([12]; 27 g a.i./ha): 52% and 82%
Activity ([12]; 81 g a.i./ha): 70%
